From patent US7291594B2 (Sanwa Kagaku Kenkyusho Co., Ltd., priority 2002, dated 2007)
Values belong to the compound of their own block, whether it stands above or below them. Where no end group is shown, it is not given here.

Tests used:
mice [1] = assay: Oral glucose tolerance test (OGTT) in mice after nasal administration of GLP-1 derivative; assay type: in vivo, mouse; design: Blood insulin level (5 minutes after glucose administration): unit not given here; conditions: for Blood glucose level (area under blood concentration-time curve (AUC0-20 min)) / Blood insulin level (5 minutes after glucose administration): average ± standard error
Experimental: That is, the GLP-1 derivative was administered via the nose into mice, and evaluated in an oral glucose tolerance test (OGTT) where a change in blood glucose level in the mice after tolerated with glucose was measured.
At the time of the test, the solution was diluted to a predetermined concentration with physiological saline.
(§1) Mice were anesthetized lightly with ether. […] The GLP-1 derivative solution was inhaled by breathing through the nose into the mouse.
(§2) The blood glucose level was determined by collecting several μl blood from a cut in the tail just before the test and 5, 10 and 20 minutes after glucose administration, and measuring the blood with a small blood-glucose-level measuring instrument (Glutest Ace, manufactured by Sanwa Kagaku Kenkyusho Co., Ltd.).
(§3) The blood insulin level was determined by collecting 75 μl blood from an orbital venous plexus with a heparin-treated glass capillary 5 minutes after administration of glucose, then centrifuging the blood and measuring plasma insulin by EIA (Levis Mouse Insulin Kit, manufactured by Shibayagi Co., Ltd.).

human GLP-1 receptor = molecular target: T1, human GLP-1 receptor (Homo sapiens, UniProt P43220); assay: Cyclic AMP-producing activity in human GLP-1 receptor-expressing CHO-K1 cells; assay type: cell-based
T1 construct: expressed in transfected cells; host or cells: CHO-K1 (Chinese hamster ovary)
T1 sequence (P43220 24-463): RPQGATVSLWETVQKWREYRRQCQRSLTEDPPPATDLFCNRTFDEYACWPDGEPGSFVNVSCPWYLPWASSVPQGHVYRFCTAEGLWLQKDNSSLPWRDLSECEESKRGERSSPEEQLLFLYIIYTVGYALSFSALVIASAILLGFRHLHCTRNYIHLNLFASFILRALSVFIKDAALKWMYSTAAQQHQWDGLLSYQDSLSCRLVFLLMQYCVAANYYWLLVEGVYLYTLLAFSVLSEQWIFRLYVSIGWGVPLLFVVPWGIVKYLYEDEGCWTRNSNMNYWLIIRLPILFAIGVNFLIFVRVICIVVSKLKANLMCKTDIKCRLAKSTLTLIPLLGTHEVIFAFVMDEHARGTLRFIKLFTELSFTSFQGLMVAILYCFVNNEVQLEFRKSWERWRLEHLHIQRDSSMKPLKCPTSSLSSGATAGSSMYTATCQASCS
Experimental: 10 μl of 5 N hydrochloric acid was added to terminate the incubation.

mouse Langerhans islet = assay: Insulin secretion stimulating activity using mouse Langerhans islet; assay type: cell-based; conditions: 16.7 mM glucose
mice [2] = assay: Blood glucose lowering activity in mice after subcutaneous administration and intravenous glucose; assay type: in vivo, mouse; conditions: for Blood sugar level 20 minutes after tolerance with glucose: 0.5 g/kg glucose i.v., mouse
mice [3] = assay: OGTT in mice after nasal administration, with or without charge-regulated fat emulsion; assay type: in vivo, mouse; design: unit not given here
Experimental: The charge-regulated fat emulsion used was prepared according to JP-A 8-27018; that is, a charge-regulated fat emulsion at a final concentration of 8% was obtained by using 2% (w/w) phosphatidyl glycerol (sodium salt), 8% (w/w) neutral oil and 90% (w/w) water.
50 μl of 8% charge-regulated fat emulsion was mixed with 3.56 μl of 1 mM 8S-GLP-1+5R solution and 146.4 μl distilled water to give 2% charge-regulated fat emulsion solution containing 8S-GLP-1+5R at a final concentration of 0.0178 mM.
as §1
as §2, with “10, 20” for “5, 10”, “30” for “20”, “glucose” for “the blood”, “a” for “a small”
as §3, with “capillary 10” for “capillary 5”

dipeptidyl peptidase IV = dipeptidyl peptidase IV (Homo sapiens, UniProt P27487); assay: Resistance to dipeptidyl peptidase IV (residual cAMP activity); assay type: in vitro ADME
Sequence of dipeptidyl peptidase IV (P27487 whole entry, species assumed): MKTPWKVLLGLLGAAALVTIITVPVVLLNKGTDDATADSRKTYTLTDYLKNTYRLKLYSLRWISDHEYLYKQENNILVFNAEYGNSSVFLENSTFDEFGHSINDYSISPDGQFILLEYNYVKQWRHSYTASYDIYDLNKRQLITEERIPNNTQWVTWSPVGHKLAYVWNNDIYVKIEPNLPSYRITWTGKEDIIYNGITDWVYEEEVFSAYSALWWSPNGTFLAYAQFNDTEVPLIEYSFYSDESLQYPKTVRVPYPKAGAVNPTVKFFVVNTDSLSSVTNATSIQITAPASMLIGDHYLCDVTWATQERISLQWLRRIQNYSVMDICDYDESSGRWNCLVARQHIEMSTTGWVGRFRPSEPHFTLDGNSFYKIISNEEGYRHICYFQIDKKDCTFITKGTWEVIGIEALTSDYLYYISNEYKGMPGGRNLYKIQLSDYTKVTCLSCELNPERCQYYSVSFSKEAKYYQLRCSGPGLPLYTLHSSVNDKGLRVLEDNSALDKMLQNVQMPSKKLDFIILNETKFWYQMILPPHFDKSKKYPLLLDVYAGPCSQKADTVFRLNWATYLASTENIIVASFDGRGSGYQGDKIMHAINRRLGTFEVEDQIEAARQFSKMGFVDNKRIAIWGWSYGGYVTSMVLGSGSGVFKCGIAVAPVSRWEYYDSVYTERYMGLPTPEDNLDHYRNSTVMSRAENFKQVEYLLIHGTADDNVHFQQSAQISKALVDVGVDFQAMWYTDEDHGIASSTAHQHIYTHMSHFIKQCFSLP
Experimental: Thereafter, the sample was extracted with a 2-fold excess volume of ethanol, centrifuged and evaporated into dryness by an evaporator. The resulting dried product was dissolved in distilled water containing 1% BSA, and its cyclic AMP production activity was measured according to Test Example 1, to calculate the residual activity (%).

trypsin = molecular target: T2, trypsin (Sus scrofa, UniProt P00761); assay: Resistance to trypsin (residual cAMP activity); assay type: in vitro ADME
T2 construct: purchased Promega V5113
T2 sequence (P00761 9-231): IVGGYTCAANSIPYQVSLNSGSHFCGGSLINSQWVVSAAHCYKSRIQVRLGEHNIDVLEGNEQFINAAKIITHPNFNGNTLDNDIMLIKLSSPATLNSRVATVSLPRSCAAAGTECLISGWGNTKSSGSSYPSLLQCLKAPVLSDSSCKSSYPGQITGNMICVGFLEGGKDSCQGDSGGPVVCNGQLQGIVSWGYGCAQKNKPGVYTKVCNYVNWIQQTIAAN
Experimental: Then, 5 μl of 500 μg/ml trypsin (Promega Cat. No. V5113) was added to 100 μl of the solution, and the mixture was incubated at 37° C. for 1 hour. The reaction was terminated by adding 1200 μl of 71.5% (final 65%) ethanol, and the reaction solution was centrifuged at 15,000 rpm at 4° C. for 5 minutes to recover a supernatant which was then evaporated into dryness. The dried product was dissolved in distilled water and measured for cAMP activity by the method in Test Example 1, to determine the residual activity (%).

Compound: [Ser^8]-GLP-1 (7-35)-Lys-Lys-Lys-Lys-Lys-Arg-NH2 (HSEGTFTSDVSSYLEGQAAKEFIAWLVKGKKKKKR-NH2) [8S, des36R-GLP-1 + 5KR]
blood glucose depressing action (in words) (mice [1]): strongest blood glucose depressing action
Blood glucose level (area under blood concentration-time curve (AUC0-20 min)) (mice [1]; 1.07 nmol/mouse): 404 ± 71 mg·min/dL
Blood insulin level (5 minutes after glucose administration) (mice [1]; 1.07 nmol/mouse): 2229 ± 346

Compound: [Ser^8]-GLP-1 (7-35)-Lys-Lys-Arg-NH2 (HSEGTFTSDVSSYLEGQAAKEFIAWLVKGKKR-NH2) [8S, des36R-GLP-1 + 2KR]
Blood glucose level (area under blood concentration-time curve (AUC0-20 min)) (mice [1]; 1.07 nmol/mouse): 564 ± 52 mg·min/dL
Blood insulin level (5 minutes after glucose administration) (mice [1]; 1.07 nmol/mouse): 1243 ± 309

Compound: [Ser^8]-GLP-1 (7-35)-Arg-Arg-Arg-NH2 (HSEGTFTSDVSSYLEGQAAKEFIAWLVKGRRR-NH2) [8S-GLP-1 + 2R]
Blood glucose level (area under blood concentration-time curve (AUC0-20 min)) (mice [1]; 1.07 nmol/mouse): 535 ± 58 mg·min/dL
Blood insulin level (5 minutes after glucose administration) (mice [1]; 1.07 nmol/mouse): 957 ± 86

Compound: [Ser^8]-GLP-1 (7-35)-Lys-Lys-Lys-Lys-Lys-Lys-Lys-Arg-NH2 (HSEGTFTSDVSSYLEGQAAKEFIAWLVKGKKKKKKKR-NH2) [8S, des36R-GLP-1 + 7KR]
Blood glucose level (area under blood concentration-time curve (AUC0-20 min)) (mice [1]; 1.07 nmol/mouse): 457 ± 69 mg·min/dL
Blood insulin level (5 minutes after glucose administration) (mice [1]; 1.07 nmol/mouse): 1604 ± 344

in vitro activity of producing cyclic AMP (in words) (human GLP-1 receptor): the activity was maintained
Amount of cAMP produced (human GLP-1 receptor; concentration −8 log M): 79.2 pmol/10^5 cell/30 min
Amount of cAMP produced (human GLP-1 receptor; concentration −9 log M): 76.1 pmol/10^5 cell/30 min
Amount of cAMP produced (human GLP-1 receptor; concentration −10 log M): 24.2 pmol/10^5 cell/30 min
Amount of cAMP produced (human GLP-1 receptor; concentration −11 log M): 4.7 pmol/10^5 cell/30 min
Amount of cAMP produced (human GLP-1 receptor; concentration −12 log M): 0.6 pmol/10^5 cell/30 min
Compound: [Ser^8, Gln^26, Asn^34]-GLP-1 (7-35)-Arg (HSEGTFTSDVSSYLEGQAAQEFIAWLVNGR; ends and bridges not checked) [8S26Q34N-GLP-1]
insulin secretion stimulating activity compared with naturally occurring GLP-1 (in words) (mouse Langerhans islet; 30 minutes): stronger insulin secretion stimulating activity than that of the naturally occurring GLP-1
Amount of insulin secreted (mouse Langerhans islet; assay concentration −8 log M): 9.85 ng/islet/30 min
Amount of insulin secreted (mouse Langerhans islet; assay concentration −9 log M): 6.61 ng/islet/30 min
Amount of insulin secreted (mouse Langerhans islet; assay concentration −10 log M): 3.64 ng/islet/30 min
blood glucose lowering activity in mice (in words) (mice [2]): concentration-dependent depression in blood glucose level
Blood sugar level 20 minutes after tolerance with glucose (mice [2]; 5 μg/kg): 110 mg/dL
Blood sugar level 20 minutes after tolerance with glucose (mice [2]; 10 μg/kg): 95 mg/dL
Blood sugar level 20 minutes after tolerance with glucose (mice [2]; 20 μg/kg): 21 mg/dL

Compound: [Ser^8]-GLP-1 (7-35)-Arg-Lys-Lys-NH2 (HSEGTFTSDVSSYLEGQAAKEFIAWLVKGRKK-NH2) [8S-GLP-1 + 2K]
Blood glucose level (area under blood concentration-time curve (AUC0-20 min)) (mice [1]; 1.07 nmol/mouse): 598 ± 63 mg·min/dL
Blood insulin level (5 minutes after glucose administration) (mice [1]; 1.07 nmol/mouse): 862 ± 150

Compound: [Ser^8]-GLP-1 (7-35)-Lys-Lys-Lys-Lys-Lys-Lys-Lys-Lys-Lys-Lys-Arg-NH2 (HSEGTFTSDVSSYLEGQAAKEFIAWLVKGKKKKKKKKKKR-NH2) [8S, des36R-GLP-1 + 10KR]
Blood glucose level (area under blood concentration-time curve (AUC0-20 min)) (mice [1]; 1.07 nmol/mouse): 492 ± 106 mg·min/dL
Blood insulin level (5 minutes after glucose administration) (mice [1]; 1.07 nmol/mouse): 2379 ± 520

Compound: [Ser^8]-GLP-1 (7-35)-Arg-Arg-Arg-Arg-Arg-NH2 (HSEGTFTSDVSSYLEGQAAKEFIAWLVKGRRRRR-NH2) [8S-GLP-1 + 4R]
blood glucose depressing action (in words) (mice [1]): strongest blood glucose depressing action
Blood glucose level (area under blood concentration-time curve (AUC0-20 min)) (mice [1]; 1.07 nmol/mouse): 388 ± 54 mg·min/dL
Blood insulin level (5 minutes after glucose administration) (mice [1]; 1.07 nmol/mouse): 1713 ± 430

Compound: [Ser^8]-GLP-1 (7-35)-Lys-Arg-NH2 (HSEGTFTSDVSSYLEGQAAKEFIAWLVKGKR-NH2) [8S, des36R-GLP-1 + 1KR]
Blood glucose level (area under blood concentration-time curve (AUC0-20 min)) (mice [1]; 1.07 nmol/mouse): 611 ± 51 mg·min/dL
Blood insulin level (5 minutes after glucose administration) (mice [1]; 1.07 nmol/mouse): 1349 ± 244

Compound: GLP-1 (7-36)—NH2 [reference compound]
Blood glucose level (area under blood concentration-time curve (AUC0-20 min)) (mice [1]; 1.07 nmol/mouse): 697 ± 94 mg·min/dL
Blood insulin level (5 minutes after glucose administration) (mice [1]; 1.07 nmol/mouse): 662 ± 91
Blood glucose level (area under blood concentration-time curve (AUC0-20 min)) (mice [1]; 10.7 nmol/mouse): 399 ± 35 mg·min/dL
Blood insulin level (5 minutes after glucose administration) (mice [1]; 10.7 nmol/mouse): 743 ± 147
Blood insulin level (10 minutes after glucose administration) (mice [3]; 10.7 nmol/mouse, without charge-regulated fat emulsion): 377 ± 41
Amount of insulin secreted (mouse Langerhans islet; assay concentration −8 log M): 6.71 ng/islet/30 min
Amount of insulin secreted (mouse Langerhans islet; assay concentration −9 log M): 5.11 ng/islet/30 min
Amount of insulin secreted (mouse Langerhans islet; assay concentration −10 log M): 4.11 ng/islet/30 min
Blood sugar level 20 minutes after tolerance with glucose (mice [2]; 5 μg/kg): 119 mg/dL
Blood sugar level 20 minutes after tolerance with glucose (mice [2]; 10 μg/kg): 103 mg/dL
Blood sugar level 20 minutes after tolerance with glucose (mice [2]; 20 μg/kg): 75 mg/dL
Residual activity (%) (dipeptidyl peptidase IV; DPP IV + (40 μU/μl, 37° C., 60 minutes)): 25%
Residual activity (%) (dipeptidyl peptidase IV; DPP IV −(not treated)): 100%

Compound: [Ser^8]-GLP-1 (7-35)-Arg-Arg-Arg-Arg-Arg-Arg-Arg-Arg-Arg-NH2 (HSEGTFTSDVSSYLEGQAAKEFIAWLVKGRRRRRRRRR-NH2) [8S-GLP-1 + 8R]
Blood glucose level (area under blood concentration-time curve (AUC0-20 min)) (mice [1]; 1.07 nmol/mouse): 487 ± 32 mg·min/dL
Blood insulin level (5 minutes after glucose administration) (mice [1]; 1.07 nmol/mouse): 1882 ± 402

Residual activity (%) (trypsin; Trypsin + (37° C., 1 hour, pH 7.8)): 94.8%
Residual activity (%) (trypsin; Trypsin − (not treated)): 100%
Compound: CC[C@H](C)[C@H](NC(=O)[C@H](Cc1ccccc1)NC(=O)[C@H](CCC(=O)O)NC(=O)[C@H](CCC(N)=O)NC(=O)[C@H](C)NC(=O)[C@H](C)NC(=O)[C@H](CCC(N)=O)NC(=O)CNC(=O)[C@H](CCC(=O)O)NC(=O)[C@H](CC(C)C)NC(=O)[C@H](Cc1ccc(O)cc1)NC(=O)[C@H](CO)NC(=O)[C@H](CO)NC(=O)[C@@H](NC(=O)[C@H](CC(=O)O)NC(=O)[C@H](CO)NC(=O)[C@@H](NC(=O)[C@H](Cc1ccccc1)NC(=O)[C@@H](NC(=O)CNC(=O)[C@H](CCC(=O)O)NC(=O)[C@H](C)NC(=O)[C@@H](N)Cc1c[nH]cn1)[C@@H](C)O)[C@@H](C)O)C(C)C)C(=O)N[C@@H](C)C(=O)N[C@@H](Cc1c[nH]c2ccccc12)C(=O)N[C@@H](CC(C)C)C(=O)N[C@H](C(=O)N[C@@H](CC(N)=O)C(=O)NCC(=O)N[C@@H](CCCNC(=N)N)C(N)=O)C(C)C [26Q34N-GLP-1, [Gln^26, Asn^34]-GLP-1 (7-35)-Arg-NH2]

Compound: [Ser^8]-GLP-1 (7-35)-Arg-Arg-Arg-Arg-Arg-Arg-NH2 (HSEGTFTSDVSSYLEGQAAKEFIAWLVKGRRRRRR-NH2) [8S-GLP-1 + 5R]
Blood glucose level (area under blood concentration-time curve (AUC0-20 min)) (mice [1]; 1.07 nmol/mouse): 483 ± 26 mg·min/dL
Blood insulin level (5 minutes after glucose administration) (mice [1]; 1.07 nmol/mouse): 1504 ± 250
Blood insulin level (10 minutes after glucose administration) (mice [3]; 0.357 nmol/mouse, used in combination with 2% charge-regulated fat emulsion): 560 ± 81
Blood insulin level (10 minutes after glucose administration) (mice [3]; 0.357 nmol/mouse, without charge-regulated fat emulsion): 506 ± 34

Compound: [Ser^8]-GLP-1 (7-35)-Arg-Arg-Arg-Arg-Arg-Arg-Arg-NH2 (HSEGTFTSDVSSYLEGQAAKEFIAWLVKGRRRRRRR-NH2) [8S-GLP-1 + 6R]
Blood glucose level (area under blood concentration-time curve (AUC0-20 min)) (mice [1]; 1.07 nmol/mouse): 559 ± 27 mg·min/dL
Blood insulin level (5 minutes after glucose administration) (mice [1]; 1.07 nmol/mouse): 1633 ± 449

Compound: [Ser^8]-GLP-1 (7-35)-Arg-Arg-Arg-Arg-NH2 (HSEGTFTSDVSSYLEGQAAKEFIAWLVKGRRRR-NH2) [8S-GLP-1 + 3R]
Blood glucose level (area under blood concentration-time curve (AUC0-20 min)) (mice [1]; 1.07 nmol/mouse): 509 ± 92 mg·min/dL
Blood insulin level (5 minutes after glucose administration) (mice [1]; 1.07 nmol/mouse): 1359 ± 318

Compound: [Ser^8]-GLP-1 (7-35)-Lys-Lys-Lys-Arg-NH2 (HSEGTFTSDVSSYLEGQAAKEFIAWLVKGKKKR-NH2) [8S, des36R-GLP-1 + 3KR]
Blood glucose level (area under blood concentration-time curve (AUC0-20 min)) (mice [1]; 1.07 nmol/mouse): 557 ± 53 mg·min/dL
Blood insulin level (5 minutes after glucose administration) (mice [1]; 1.07 nmol/mouse): 1176 ± 233
